Measurements from patent publication US9533963B2, “Alkylamidothiazoles, cosmetic or dermatological preparations containing said alkylamidothiazoles, and use thereof to combat or prevent undesired pigmentation of the skin” (BEIERSDORF AG, priority 2011, dated 2017).

Biological target: T1, human tyrosinase (Homo sapiens, UniProt P14679)
T1 sequence (P14679 19-529): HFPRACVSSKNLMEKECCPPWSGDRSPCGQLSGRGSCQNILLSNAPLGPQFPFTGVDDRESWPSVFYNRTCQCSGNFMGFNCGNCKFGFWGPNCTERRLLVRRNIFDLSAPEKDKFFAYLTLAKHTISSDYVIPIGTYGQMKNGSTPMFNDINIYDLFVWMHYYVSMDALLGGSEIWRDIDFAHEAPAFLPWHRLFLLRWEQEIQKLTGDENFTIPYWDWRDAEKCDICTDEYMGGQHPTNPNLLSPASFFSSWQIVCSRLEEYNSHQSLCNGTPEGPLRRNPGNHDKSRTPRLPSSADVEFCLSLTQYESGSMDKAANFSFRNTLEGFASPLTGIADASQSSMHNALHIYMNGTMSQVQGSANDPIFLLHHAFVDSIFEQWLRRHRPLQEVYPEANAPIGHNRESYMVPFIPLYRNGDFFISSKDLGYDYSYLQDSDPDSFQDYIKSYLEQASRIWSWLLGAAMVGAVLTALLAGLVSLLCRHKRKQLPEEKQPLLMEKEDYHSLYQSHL
Assay: Enzyme test: conversion of L-DOPA to L-dopaquinone by a human tyrosinase (MBTH, absorption at 490 nm)
Type: biochemical
Conditions: concentration 10 μg/ml, inhibition of the tyrosinase activity; for inhibition at 10 µg/mL: read-out: Inhibition (% of the control)
Description: Method Description of the Effectiveness Investigations:
In this literature-known method (Winder, A. J. and Harris, H., New assays for the tyrosine hydroxylase and dopa oxidase activities of tyrosinase. Eur. J. Biochem. (1991), 198, 317-26), the reaction product L-dopaquinone is reacted with MBTH (3-methyl-2-benzothiazoline hydrazone) to give a pink-colored substance, the increase of which is measured over the time by absorption at 490 nm. […] It can be concluded from this that the substances according to the invention are extremely effective pigmentation-inhibiting substances.

inhibition at 10 µg/mL [%] | SMILES | Inhibition (% of the control) [%]
 | CC(C)Nc1nc(-c2ccc(O)cc2O)cs1 [4-(2-Isopropylamino)thiazol-4-yl)benzene-1,3-diol, reference compound] | 91
62 | CC(C)(C)Nc1nc(-c2ccc(O)cc2O)cs1 [4-(2-(tert-Butylamino)thiazol-4-yl)benzene-1,3-diol, reference compound] | 
88 | O=C(Cc1ccc(CO)cc1)Nc1nc(-c2ccc(O)cc2O)cs1 [N-(4-(2,4-Dihydroxyphenyl)thiazol-2-yl)-2-(4-(hydroxymethyl)phenyl)acetamide] | 
93 | OCc1ccc(Nc2nc(-c3ccc(O)cc3O)cs2)cc1 [4-(2-((4-(Hydroxymethyl)phenyl)amino)thiazol-4-yl)benzene-1,3-diol, reference compound] | 
92 | O=C(Nc1nc(-c2ccc(O)cc2O)cs1)C1CCCCC1 [N-(4-(2,4-Dihydroxyphenyl)thiazol-2-yl)cyclohexanecarboxamide] | 
41 | CCCCCCNc1nc(-c2ccc(O)cc2O)cs1 [4-(2-(Hexylamino)thiazol-4-yl)benzene-1,3-diol, reference compound] | 
66 | CCCCCCC(=O)Nc1nc(-c2ccc(O)cc2O)cs1 [N-(4-(2,4-Dihydroxyphenyl)thiazol-2-yl)heptanamide] | 
94 | O=C(Nc1nc(-c2ccc(O)cc2O)cs1)C1CCC(CO)CC1 (stereo not shown) [N-(4-(2,4-Dihydroxyphenyl)thiazol-2-yl)-4-(hydroxymethyl)cyclohexanecarboxamide] | 
70 | Oc1ccc(-c2csc(NC3CCCCC3)n2)c(O)c1 [4-(2-(Cyclohexylamino)thiazol-4-yl)benzene-1,3-diol, reference compound] | 
88 | CCCNc1nc(-c2ccc(O)cc2O)cs1 [4-(2-(Propylamino)thiazol-4-yl)benzene-1,3-diol, reference compound] | 

SMILES | inhibition at 10 µg/mL [%] | Inhibition (% of the control) [%]
CCCC(=O)Nc1nc(-c2ccc(O)cc2O)cs1 [N-(4-(2,4-Dihydroxyphenyl)thiazol-2-yl)butyramide] | 95 | 
CC(C)(C)C(=O)Nc1nc(-c2ccc(O)cc2O)cs1 [N-(4-(2,4-Dihydroxyphenyl)thiazol-2-yl)pivalamide] | 96 | 
CC(C)C(=O)Nc1nc(-c2ccc(O)cc2O)cs1 [N-(4-(2,4-Dihydroxyphenyl)thiazol-2-yl)isobutyramide] | 94 | 
